ChEMBL document CHEMBL1201862, “PubChem BioAssay data set” (2004)
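Results reflect a 48-hour exposure of cells in 96-well plates to compound at five concentrations. GI50 marks 50% less growth.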 Activity calls are given as the source filed them. No stated cut-off is given here; in the data, active = GI50 up to about 1.1 µM and inactive = higher.

Key:
Experiment in all cases: NCI anticancer screen, dose series, 48 h
UO-31 = system: UO-31
HCT-116 = system: HCT-116
A549 = system: A549
SK-MEL-5 = system: SK-MEL-5
HCC 2998 = system: HCC 2998
NCI-H460 = system: NCI-H460
LXFL 529 = system: LXFL 529
SF-295 = system: SF-295
SR = system: SR
EKVX = system: EKVX
M14 = system: M14
OVCAR-4 = system: OVCAR-4
CAKI-1 = system: CAKI-1

SMILES	GI50 (UO-31)	GI50 (HCT-116)	GI50 (A549)	GI50 (SK-MEL-5)	GI50 (HCC 2998)	GI50 (NCI-H460)	GI50 (LXFL 529)	GI50 (SF-295)	GI50 (SR)	GI50 (EKVX)	GI50 (M14)	GI50 (OVCAR-4)	GI50 (CAKI-1)
CCC(CC)NC1=C(NC(C)=O)C(=O)c2ccccc2C1=O	> 50 µM (inactive)	> 50 µM (inactive)	> 50 µM (inactive)	> 50 µM (inactive)	> 50 µM (inactive)	> 50 µM (inactive)	> 50 µM (inactive)	> 50 µM (inactive)	> 50 µM (inactive)	> 50 µM (inactive)	> 50 µM (inactive)	> 50 µM (inactive)	
Cc1ccc(S(=O)(=O)NC2(C=O)CCCC3CCCCC32)cc1 (stereo not drawn)	> 100 µM (inactive)	> 100 µM (inactive)	> 100 µM (inactive)	> 100 µM (inactive)	> 100 µM (inactive)	> 100 µM (inactive)	> 100 µM (inactive)		> 100 µM (inactive)		> 100 µM (inactive)	> 100 µM (inactive)	> 100 µM (inactive)
CC(=O)Nc1ccc(C2C(C(=O)Nc3ccccc3C)=C(C)NC(C)=C2C(=O)Nc2ccccc2C)cc1	> 100 µM (inactive)	> 100 µM (inactive)	> 100 µM (inactive)	> 100 µM (inactive)	> 100 µM (inactive)	> 100 µM (inactive)	> 100 µM (inactive)	> 100 µM (inactive)	20.1 µM (inactive)	> 100 µM (inactive)	> 100 µM (inactive)	> 100 µM (inactive)	> 100 µM (inactive)
CC(=O)O[C@]12CCCCC1C1(O)C(O)CCCC[C@H]12 (stereo partly drawn)	> 100 µM (inactive)	> 100 µM (inactive)	> 100 µM (inactive)	> 100 µM (inactive)		> 100 µM (inactive)	> 100 µM (inactive)	> 100 µM (inactive)	> 100 µM (inactive)	> 100 µM (inactive)	> 100 µM (inactive)	> 100 µM (inactive)	
Cc1cc(NS(=O)(=O)c2ccc(Nc3c4ccccc4nc4c(C(=O)NCCN(C)C)cccc34)cc2)no1		4.79 µM (inactive)	3.29 µM (inactive)	2.49 µM (inactive)	3.87 µM (inactive)	0.685 µM (active)	3.6 µM (inactive)	8.38 µM (inactive)	0.272 µM (active)	5.09 µM (inactive)	5.08 µM (inactive)	10.7 µM (inactive)	
C=CCCC(C)N(C(=O)OC(C)(C)C)S(=O)(=O)c1ccc(C)cc1 (stereo not drawn)	> 100 µM (inactive)	> 100 µM (inactive)	> 100 µM (inactive)		> 100 µM (inactive)	> 100 µM (inactive)	> 100 µM (inactive)	> 100 µM (inactive)	> 100 µM (inactive)		> 100 µM (inactive)	> 100 µM (inactive)	> 100 µM (inactive)
COC(=O)C1[C@@H](C(=O)OC)C12C=Cc1ccccc1C=C2 (stereo partly drawn)	> 100 µM (inactive)	> 100 µM (inactive)	> 100 µM (inactive)	> 100 µM (inactive)	> 100 µM (inactive)	> 100 µM (inactive)	> 100 µM (inactive)	> 100 µM (inactive)	> 100 µM (inactive)	> 100 µM (inactive)	> 100 µM (inactive)		
CCOC(=O)/C(=C/c1ccc(N(C)C)cc1)N(CC)CC	68.5 µM (inactive)	48.1 µM (inactive)	48.1 µM (inactive)	> 10 µM (inactive)	> 100 µM (inactive)		34.6 µM (inactive)	> 100 µM (inactive)	48.6 µM (inactive)	35.2 µM (inactive)	> 100 µM (inactive)	73.1 µM (inactive)	> 100 µM (inactive)
NC(CCCC(N)P(=O)(O)c1ccccc1)P(=O)(O)c1ccccc1 (stereo not drawn)	> 261 µM (inactive)	> 261 µM (inactive)	> 261 µM (inactive)		> 261 µM (inactive)	> 261 µM (inactive)	> 261 µM (inactive)	> 261 µM (inactive)	> 261 µM (inactive)	> 261 µM (inactive)	> 261 µM (inactive)	> 261 µM (inactive)	
